What was measured:
Mer = target: T1, Mer (Homo sapiens, UniProt Q12866); assay: LanthaScreen Eu kinase binding assay for Mer; details: read-out: Mer kinase binding activity (Kd)
T1 construct: purchased Life Technologies
T1 sequence (Q12866 21-999): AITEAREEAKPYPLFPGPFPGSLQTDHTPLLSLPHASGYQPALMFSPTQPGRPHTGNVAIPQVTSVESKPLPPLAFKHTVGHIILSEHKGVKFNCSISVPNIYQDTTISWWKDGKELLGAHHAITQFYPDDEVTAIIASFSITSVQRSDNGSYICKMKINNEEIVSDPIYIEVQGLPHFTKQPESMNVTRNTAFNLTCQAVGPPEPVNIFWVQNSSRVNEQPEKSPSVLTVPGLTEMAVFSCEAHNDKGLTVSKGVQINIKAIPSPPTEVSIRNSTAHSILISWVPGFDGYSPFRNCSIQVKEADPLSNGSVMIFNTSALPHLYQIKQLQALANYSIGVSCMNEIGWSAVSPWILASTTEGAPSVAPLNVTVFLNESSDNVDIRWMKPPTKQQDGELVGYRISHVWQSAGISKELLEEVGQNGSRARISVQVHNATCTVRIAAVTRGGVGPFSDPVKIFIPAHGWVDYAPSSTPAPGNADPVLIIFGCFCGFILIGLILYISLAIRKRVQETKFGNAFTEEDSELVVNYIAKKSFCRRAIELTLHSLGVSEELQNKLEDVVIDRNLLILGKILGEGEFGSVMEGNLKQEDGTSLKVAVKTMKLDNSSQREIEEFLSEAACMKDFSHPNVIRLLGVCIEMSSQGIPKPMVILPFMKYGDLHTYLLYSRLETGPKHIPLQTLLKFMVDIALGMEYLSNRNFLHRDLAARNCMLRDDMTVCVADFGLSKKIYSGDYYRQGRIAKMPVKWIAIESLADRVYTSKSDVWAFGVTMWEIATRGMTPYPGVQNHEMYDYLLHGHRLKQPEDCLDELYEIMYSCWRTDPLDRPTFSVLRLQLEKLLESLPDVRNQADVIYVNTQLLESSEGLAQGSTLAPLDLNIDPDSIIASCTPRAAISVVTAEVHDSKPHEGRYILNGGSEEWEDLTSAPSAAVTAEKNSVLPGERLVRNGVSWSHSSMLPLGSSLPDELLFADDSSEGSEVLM
Summary of the method: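 Competitive displacement of Alexa Fluor 647-labeled Tracer 236 from the kinase, with binding detected by TR-FRET with a Eu-labeled anti-GST antibody. Compounds were run as 8-step DMSO serial dilutions and incubated 1 h at room temperature. Kd was calculated relative to DMSO vehicle control wells.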

CSF1R (M-NFS-60 cells) = assay: Cell Titer-Glo viability assay using M-NFS-60 cells; format: cell-based; details: Mus musculus, read-out: Cellular CSF1R activity by M-NFS-60 viability assay (IC50 activity range)
Summary of the method: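 M-NFS-60 cells grown with 62 ng/ml recombinant human M-CSF, seeded at 2×10^5 cells/well and incubated at 37 °C/5% CO2. Compounds given as 3-fold serial dilutions (10 doses); viability read by CellTiter-Glo luminescence, sigmoidal dose-response fit.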

Row | Kd (Mer) | Structure (SMILES) | IC50 (CSF1R (M-NFS-60 cells))
1 | < 100 nM | CCCn1cc(OCC(F)(F)F)c(C(=O)Nc2ccc(Oc3ccnc4cc(OC)c(OC)cc34)cc2)n1 [Compound 38] | < 1000 nM
2 | < 100 nM | COc1cc2nccc(Oc3ccc(NC(=O)c4nn(CCC#N)cc4OCC(F)(F)F)nc3)c2cc1OC [Compound 39] | < 1000 nM
3 | < 100 nM | COc1cc2nccc(Oc3ccc(NC(=O)c4nn(C5CCCC5)cc4OCC(F)(F)F)nc3)c2cc1OC [Compound 40] | < 1000 nM
4 | < 100 nM | COc1cc2nccc(Oc3ccc(NC(=O)c4nn(CC5CC5)cc4OCC(F)(F)F)nc3)c2cc1OC [Compound 41] | < 1000 nM
5 | < 100 nM | COc1cc2nccc(Oc3ccc(NC(=O)c4nn(CC5CCC5)cc4OCC(F)(F)F)nc3)c2cc1OC [Compound 42] | < 1000 nM
6 | < 100 nM | COc1cc2nccc(Oc3ccc(NC(=O)c4nn(CC5CCCCC5)cc4OCC(F)(F)F)nc3)c2cc1OC [Compound 43] | < 1000 nM
7 | < 100 nM | COc1cc2nccc(Oc3ccc(NC(=O)c4nn(CC5CCOC5)cc4OCC(F)(F)F)nc3)c2cc1OC (centres unmarked) [Compound 44] | < 1000 nM
8 | < 100 nM | COc1cc2nccc(Oc3ccc(NC(=O)c4nn(C)cc4OCC(F)(F)F)c(F)c3)c2cc1OC [Compound 45] | 1000 to 10000 nM
9 | < 100 nM | COc1cc2nccc(Oc3ccc(NC(=O)c4nn(CCO)cc4OCC(F)(F)F)c(F)c3)c2cc1OC [Compound 46] | 1000 to 10000 nM
10 | < 100 nM | COc1cc2nccc(Oc3ccc(NC(=O)c4nn(C5CCCC5)cc4OCC(F)(F)F)c(F)c3)c2cc1OC [Compound 47] | < 1000 nM
11 | < 100 nM | COc1cc2nccc(Oc3ccc(NC(=O)c4nn(CC(C)C)cc4OCC(F)(F)F)c(F)c3)c2cc1OC [Compound 48] | < 1000 nM
12 | < 100 nM | COCCn1cc(OCC(F)(F)F)c(C(=O)Nc2ccc(Oc3ccnc4cc(OC)c(OC)cc34)cc2F)n1 [Compound 49] | 1000 to 10000 nM
13 | < 100 nM | COc1cc2nccc(Oc3ccc(NC(=O)c4nn(C)cc4OCC(F)(F)F)cc3F)c2cc1OC [Compound 50] | 1000 to 10000 nM
14 | < 100 nM | COc1cc2nccc(Oc3ccc(NC(=O)c4nn(CCO)cc4OCC(F)(F)F)cc3F)c2cc1OC [Compound 51] | < 1000 nM
15 | < 100 nM | COc1cc2nccc(Oc3ccc(NC(=O)c4nn(C5CCCC5)cc4OCC(F)(F)F)cc3F)c2cc1OC [Compound 52] | < 1000 nM
16 | < 100 nM | COc1cc2nccc(Oc3ccc(NC(=O)c4nn(CC(C)C)cc4OCC(F)(F)F)cc3F)c2cc1OC [Compound 53] | < 1000 nM

Further lines, the compound ahead of its results:

Row | Structure (SMILES) | Kd (Mer) | IC50 (CSF1R (M-NFS-60 cells))
17 | CCn1nc(C(=O)Nc2ccc(Oc3ccnc4cc(OC)c(OC)cc34)cn2)c(OCC(F)(F)F)c1C [Compound 1] | < 100 nM | < 1000 nM
18 | COc1cc2nccc(Oc3ccc(NC(=O)c4nn(C(C)C)c(C)c4OCC(F)(F)F)nc3)c2cc1OC [Compound 2] | < 100 nM | < 1000 nM
19 | COc1cc2nccc(Oc3ccc(NC(=O)c4nn(C5CC5)c(C(C)=O)c4OCC(F)(F)F)nc3)c2cc1OC [Compound 3] | < 100 nM | ≥ 10000 nM
20 | COc1cc2nccc(Oc3ccc(NC(=O)c4nn(C5CCOC5)cc4OCC(F)(F)F)nc3)c2cc1OC (centres unmarked) [Compound 13] | < 100 nM | < 1000 nM
21 | CCCn1cc(OCCF)c(C(=O)Nc2ccc(Oc3ccnc4cc(OC)c(OC)cc34)cn2)n1 [Compound 14] | < 100 nM | < 1000 nM
22 | CCCn1cc(OCCC(O)CO)c(C(=O)Nc2ccc(Oc3ccnc4cc(OC)c(OC)cc34)cn2)n1 (centres unmarked) [Compound 15] | < 100 nM | 1000 to 10000 nM
23 | COc1cc2nccc(Oc3ccc(NC(=O)c4nn(CC(C)O)cc4OCC(F)(F)F)nc3)c2cc1OC (centres unmarked) [Compound 17] | < 100 nM | < 1000 nM
24 | COc1cc2nccc(Oc3ccc(NC(=O)c4nn(CCCO)cc4OCC(F)(F)F)nc3)c2cc1OC [Compound 18] | < 100 nM | < 1000 nM
25 | COc1cc2nccc(Oc3ccc(NC(=O)c4nn(CC(C)=O)cc4OCC(F)(F)F)nc3)c2cc1OC [Compound 19] | < 100 nM | < 1000 nM
26 | CCC(=O)n1cc(OCC(F)(F)F)c(C(=O)Nc2ccc(Oc3ccnc4cc(OC)c(OC)cc34)cn2)n1 [Compound 20] | < 100 nM | < 1000 nM
27 | COc1cc2nccc(Oc3ccc(NC(=O)c4nn(CC(C)C)cc4OCC(F)(F)F)nc3)c2cc1OC [Compound 21] | < 100 nM | < 1000 nM
28 | COc1cc2nccc(Oc3ccc(NC(=O)c4nn(C(C)(C)C)cc4OCC(F)(F)F)nc3)c2cc1OC [Compound 22] | < 100 nM | < 1000 nM
29 | CCCn1cc(NCC(F)(F)F)c(C(=O)Nc2ccc(Oc3ccnc4cc(OC)c(OC)cc34)cn2)n1 [Compound 23] | < 100 nM | < 1000 nM
30 | COc1cc2nccc(Oc3ccc(NC(=O)c4nn(C5CCC5)cc4OCC(F)(F)F)nc3)c2cc1OC [Compound 24] | < 100 nM | < 1000 nM
31 | CCCn1cc(OCC(F)(F)F)c(C(=O)Nc2ccc(Oc3ccnc4cc(OC)c(OC)cc34)c(F)c2)n1 [Compound 25] | < 100 nM | 1000 to 10000 nM
32 | CCCn1cc(OCC(F)(F)F)c(C(=O)Nc2ccc(Oc3ccnc4cc(OC)c(OC)cc34)c(C)c2)n1 [Compound 26] | < 100 nM | 1000 to 10000 nM
33 | CCCn1cc(OCC(F)(F)F)c(C(=O)Nc2ccc(Oc3ccnc4cc(OC)c(OC)cc34)cc2C)n1 [Compound 27] | < 100 nM | 1000 to 10000 nM
34 | CCCn1cc(OCC(F)(F)F)c(C(=O)Nc2ccc(Oc3ccnc4cc(OC)c(OC)cc34)cc2F)n1 [Compound 28] | < 100 nM | 1000 to 10000 nM
35 | COc1cc2nccc(Oc3ccc(NC(=O)c4nn(C[C@@H](C)O)cc4OCC(F)(F)F)nc3)c2cc1OC [Compound 29] | < 100 nM | < 1000 nM
36 | COc1cc2nccc(Oc3ccc(NC(=O)c4nn(C[C@H](C)O)cc4OCC(F)(F)F)nc3)c2cc1OC [Compound 30] | < 100 nM | < 1000 nM
37 | CCCn1cc(OCCC(F)(F)F)c(C(=O)Nc2ccc(Oc3ccnc4cc(OC)c(OC)cc34)cn2)n1 [Compound 31] | < 100 nM | < 1000 nM
38 | CCCn1cc(OCC(F)(F)F)c(C(=O)Nc2ccc(Oc3ccnc4cc(OC)c(OC)cc34)nn2)n1 [Compound 32] | < 100 nM | 1000 to 10000 nM
39 | COc1cc2nccc(Oc3ccc(NC(=O)c4nn(C)cc4OCC(F)(F)F)nc3)c2cc1OC [Compound 33] | < 100 nM | < 1000 nM
40 | CCCn1cc(N(C)CC2CCOCC2)c(C(=O)Nc2ccc(Oc3ccnc4cc(OC)c(OC)cc34)cn2)n1 [Compound 34] | 100 to 500 nM | 1000 to 10000 nM
41 | CCCn1cc(OC(C)C)c(C(=O)Nc2ccc(Oc3ccnc4cc(OC)c(OC(F)(F)F)cc34)c(F)c2)n1 [Compound 35] | ≥ 500 nM | 1000 to 10000 nM
42 | CCCCn1cc(OCC(F)(F)F)c(C(=O)Nc2ccc(Oc3ccnc4cc(OC)c(OC)cc34)cn2)n1 [Compound 36] | < 100 nM | < 1000 nM
43 | COc1cc2nccc(Oc3ccc(NC(=O)c4nn(C)cc4OCC(F)(F)F)cc3C)c2cc1OC [Compound 37] | < 100 nM | < 1000 nM
